Earlier results on 4 molecules are cited in US20030219799A1, “Cancer-linked gene as target for chemotherapy” (priority 2002, published 2003).

For data set [1] the following is noted: in vitro.
A further data set concerns cultured cell lines. The conditions noted are these: versus cis-platin and doxorubicin.
For data set [2] the following is noted: in vivo.
In data set [3] the test system is subcutaneous COLO 205 human colon tumor xenografts. The conditions noted are these: mice, subcutaneous COLO 205 xenografts, doses well below the maximum tolerated dose.
The test system of data set [4] is cultured colon cancer cells.

Take `COc1cc2cc(c1Cl)N(C)C(=O)C[C@H](OC(=O)[C@H](C)N(C)C(=O)CCS)[C@]1(C)O[C@H]1[C@H](C)[C@@H]1C[C@@](O)(NC(=O)O1)[C@H](OC)/C=C/C=C(\C)C2` [DM1]: the “cytotoxicity relative to maytansine” value in data set [1] is given as “up to 10 fold”.
`Cc1c[nH]c2c1[C@@]13C[C@@H]1CN(C(=O)c1cc4cc(NC(=O)c5cc6ccccc6o5)ccc4[nH]1)C3=CC2=O` [Adozelesin]: the “toxicity to cultured cell lines relative to other DNA interacting agents” value with cultured cell lines was “about 1,000 fold”.
As for `COc1cc2cc(c1Cl)N(C)C(=O)C[C@H](OC(=O)[C@H](C)N(C)C(C)=O)[C@]1(C)O[C@H]1[C@H](C)[C@@H]1C[C@@](O)(NC(=O)O1)[C@H](OC)/C=C/C=C(\C)C2` [Maytansine], the “value in human clinical trials” value in data set [2] was “little value”.

B1: immunoconjugate of the maytansinoid cytotoxin DM1 and C242 antibody: DM1 linked to C242, a murine IgG1 with affinity for a mucin-like glycoprotein of human colorectal cancers (conjugate, chains of the INN, looked up)
VH: QVQLVQSGAEVKKPGETVKISCKASDYTFTYYGMNWVKQAPGQGLKWMGWIDTTTGEPTYAQKFQGRIAFSLETSASTAYLQIKSLKSEDTATYFCARRGPYNWYFDVWGQGTTVTVSS
VL: DIVMTQSPLSVPVTPGEPVSISCRSSKSLLHSNGNTYLYWFLQRPGQSPQLLIYRMSNLVSGVPDRFSGSGSGTAFTLRISRVEAEDVGVYYCLQHLEYPFTFGPGTKLELK
modifications: DM1 maytansinoid conjugate
In the case of B1, in data set [3], the “anti-tumor effects in vivo” value was “anti-tumor effects”. For the same molecule, the “cytotoxicity against cultured colon cancer cells” value in data set [4] was “highly cytotoxic”.
